In the supplement of paper PMC11919725:

Key:
[1] = tested on: Jurkat; experiment: confluency relative to DMSO, 18 h (ratio); higher = more viable
Procedure, shortened: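 Cells (Jurkat, or primary CD4+/CD8+ T cells either naive or stimulated 48 h with CD3/CD28 Dynabeads) were incubated with compound for 18 h at 37 °C, 5% CO2, across 1 nM–10 µM in log10 steps. Each 100 µl suspension was then placed in a 96-well plate with IncuCyte Cytotox Dye and alamarBlue and imaged by phase contrast at ×10, five images per well, hourly over 3 h. Confluency values come from the Basic Analyzer and are relative to the mean of the control wells.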

[2] = tested on: Jurkat; experiment: metabolic activity relative to DMSO, 18 h (ratio); higher = more viable
Procedure, shortened: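 Compound was added at 1 nM–10 µM (log10 steps) for 18 h at 37 °C, 5% CO2 to Jurkat cells or to primary CD4+/CD8+ T cells that were naive or had been activated 48 h with CD3/CD28 Dynabeads. After alamarBlue was added to 10% v/v final, fluorescence (excitation 544 nm, emission 584 nm) was measured 3.5 h later. Values for metabolic activity are normalised to the mean of vehicle controls.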

[3] = tested on: Jurkat; experiment: cytotoxicity relative to DMSO, 18 h (ratio); higher = less cell death (drugs called cytotoxic fall below 1)
Procedure, shortened: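 Fluorescence was imaged at ×10, five images per well, every hour for 3 h, in 96-well plates holding 100 µl of treated cell suspension and IncuCyte Cytotox Dye at 250 nM final. Before plating, Jurkat cells or primary CD4+/CD8+ T cells (naive, or activated 48 h with CD3/CD28 Dynabeads) had been treated for 18 h with compound across 1 nM–10 µM in log10 steps at 37 °C, 5% CO2. Cytotoxicity values were based on these IncuCyte signals after confluency correction and normalisation to the mean of control wells.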

Row | SMILES | confluency ([1]; 1 nM) | confluency ([1]; 10 nM) | confluency ([1]; 100 nM) | confluency ([1]; 1000 nM) | confluency ([1]; 10000 nM) | metabolic activity ([2]; 1 nM) | metabolic activity ([2]; 10 nM) | metabolic activity ([2]; 100 nM) | metabolic activity ([2]; 1000 nM) | metabolic activity ([2]; 10000 nM) | cytotoxicity ([3]; 1 nM) | cytotoxicity ([3]; 10 nM) | cytotoxicity ([3]; 100 nM) | cytotoxicity ([3]; 1000 nM) | cytotoxicity ([3]; 10000 nM)
1 | O=C1C=CC(=O)C2=C1C1c3ccccc3C2c2ccccc21 [NFAT activation inhibitor III] | 1 | 0.877 | 0.804 | 0.97 | 0.864 | 1.04 | 1.04 | 1.12 | 1.01 | 0.834 | 0.945 | 0.784 | 0.732 | 1.04 | 0.839
2 | CCCCN(Cc1ccc(C(=O)NO)cc1)C(=O)Nc1ccccc1 [Nexturastat A] | 0.989 | 0.978 | 0.98 | 0.935 | 0.989 | 1.05 | 1.15 | 1.1 | 1.02 | 0.66 | 1.05 | 1.15 | 1.07 | 0.955 | 0.92
3 | COC(=O)c1ccc2c(C(=Nc3ccc(N(C)C(=O)CN4CCN(C)CC4)cc3)c3ccccc3)c(O)[nH]c2c1 [Nintedanib] | 0.986 | 0.955 | 0.981 | 0.832 | 0.566 | 1.01 | 0.93 | 0.949 | 0.919 | 0.827 | 0.929 | 0.948 | 0.988 | 0.81 | 0.537
4 | NC(=O)c1cccc2cn(-c3ccc(C4CCCNC4)cc3)nc12 (stereo not given) [Niraparib] | 1.07 | 1.04 | 1.06 | 1.05 | 0.915 | 0.947 | 0.907 | 1.17 | 0.992 | 1.01 | 1.11 | 1.01 | 1.1 | 1.03 | 0.94
5 | COC(=O)Nc1nc2ccc(C(=O)c3cccs3)cc2[nH]1 [Nocodazole] | 1.02 | 1.06 | 1.14 | 0.907 | 0.731 | 0.881 | 1.08 | 0.621 | 0.589 | 0.554 | 1.03 | 1.08 | 1.02 | 0.807 | 0.59
6 | COc1ccc(C2=NC(c3ccc(Cl)cc3)C(c3ccc(Cl)cc3)N2C(=O)N2CCNC(=O)C2)c(OC(C)C)c1 (stereo not given) [Nutlin-3] | 0.971 | 0.92 | 1.01 | 0.98 | 0.963 | 0.983 | 1.01 | 1.02 | 0.991 | 0.84 | 0.993 | 0.951 | 0.962 | 0.985 | 0.917
7 | O=C(c1cc(Cc2n[nH]c(=O)c3ccccc23)ccc1F)N1CCN(C(=O)C2CC2)CC1 [Olaparib] | 0.954 | 1.02 | 0.974 | 0.975 | 0.969 | 1.08 | 1.09 | 0.911 | 0.899 | 1 | 0.942 | 1.03 | 1 | 1.01 | 0.977
8 | COc1ncc(-c2ccc3nccc(-c4ccnnc4)c3c2)cc1NS(=O)(=O)c1ccc(F)cc1F [Omipalisib] | 0.98 | 0.797 | 0.785 | 0.904 | 1.12 | 1.1 | 0.966 | 0.621 | 0.524 | 0.563 | 1.04 | 0.823 | 0.728 | 0.735 | 0.923
9 | Nc1nc2cc(CCC3CC(n4ccc5c(N)ncnc54)C(O)C3O)ccc2cc1Br (stereo not given) [Onametostat] | 0.916 | 0.951 | 0.973 | 0.978 | 0.985 | 1.01 | 0.982 | 1.07 | 0.979 | 0.975 | 0.949 | 0.883 | 0.975 | 0.884 | 0.982
10 | COC1CCC(N2C(=O)CNc3ncc(-c4ccc(C(C)(C)O)nc4)nc32)CC1 (stereo not given) [Onatasertib] | 1.12 | 1.05 | 1.07 | 0.9 | 0.675 | 0.857 | 0.964 | 0.935 | 0.881 | 0.73 | 1.12 | 1.07 | 1.11 | 0.859 | 0.586
11 | O=C(O)C(=O)O.[NH-]C1CCCCC1[NH-].[Pt+2] (stereo not given) [Oxaliplatin] | 0.84 | 0.755 | 1.01 | 0.989 | 0.969 | 0.909 | 0.865 | 0.936 | 0.884 | 0.991 | 0.835 | 0.765 | 1.05 | 1.04 | 1.1
12 | CN(C)CC(=O)Nc1ccc2[nH]c(=O)c3ccccc3c2c1 [PJ34] | 0.971 | 0.933 | 0.94 | 0.99 | 0.968 | 0.99 | 1.03 | 1.04 | 0.955 | 1.12 | 0.966 | 0.947 | 0.963 | 0.932 | 1.17
13 | CC(=O)OC1C(=O)C2(C)C(O)CC3OCC3(OC(C)=O)C2C(OC(=O)c2ccccc2)C2(O)CC(OC(=O)C(O)C(NC(=O)c3ccccc3)c3ccccc3)C(C)=C1C2(C)C (stereo not given) [Paclitaxel] | 1 | 0.989 | 0.964 | 0.939 | 0.81 | 1.05 | 0.568 | 0.576 | 0.534 | 0.744 | 1.16 | 0.953 | 0.883 | 0.854 | 0.797
14 | CC(=O)c1c(C)c2cnc(Nc3ccc(N4CCNCC4)cn3)nc2n(C2CCCC2)c1=O [Palbociclib] | 0.829 | 0.902 | 0.974 | 1.04 | 0.813 | 0.877 | 0.988 | 0.96 | 0.995 | 0.88 | 0.851 | 0.93 | 0.95 | 1.03 | 0.793
15 | Nc1nc2[nH]cc(CCc3ccc(C(=O)NC(CCC(=O)O)C(=O)O)cc3)c2c(=O)[nH]1 (stereo not given) [Pemetrexed] | 1 | 0.962 | 0.845 | 0.839 | 0.835 | 1.02 | 1.11 | 1.06 | 1.09 | 0.853 | 0.992 | 0.997 | 0.837 | 0.821 | 0.75
16 | CC(=O)N1CCC(Nc2cc(C(=O)NCC(O)CN3CCc4ccccc4C3)ncn2)CC1 (stereo not given) [Pemrametostat] | 1.05 | 1.06 | 1.01 | 1.03 | 0.947 | 0.952 | 0.904 | 0.931 | 0.95 | 1.2 | 1.07 | 1.09 | 1.06 | 1.05 | 1.05
17 | COc1ccc(Cl)c(Nc2nc3ccccc3nc2NS(=O)(=O)c2cccc(NC(=O)C(C)(C)N)c2)c1 [Pilaralisib] | 0.978 | 1.01 | 1.01 | 0.994 | 0.976 | 1.02 | 1.03 | 1.03 | 0.939 | 0.877 | 1.06 | 1.11 | 1.1 | 0.959 | 0.942
18 | CC(C)N(CC1OC(n2cnc3c(N)ncnc32)C(O)C1O)C1CC(CCc2nc3ccc(C(C)(C)C)cc3[nH]2)C1 (stereo not given) [Pinometostat] | 0.929 | 0.934 | 1.11 | 1.02 | 0.941 | 0.998 | 1.05 | 1.12 | 0.858 | 0.958 | 0.982 | 1.06 | 1.25 | 1.01 | 1
19 | Nc1cccc2c1C(=O)N(C1CCC(=O)NC1=O)C2=O (stereo not given) [Pomalidomide] | 0.955 | 0.902 | 0.943 | 0.948 | 0.94 | 0.995 | 1.01 | 1.04 | 1.12 | 1.09 | 1.04 | 0.986 | 0.512 | 1.03 | 0.936
20 | CC12C=CC(=O)C=C1CCC1C2C(=O)CC2(C)C1CCC2(O)C(=O)CO (stereo not given) [Prednisone] | 1.01 | 0.981 | 0.993 | 1.01 | 1.02 | 0.872 | 0.991 | 1.07 | 1.04 | 1.15 | 0.964 | 1.01 | 1.02 | 1.05 | 1.21
21 | Cn1cc(CNCC2CCN(c3ncc(C(=O)NO)cn3)CC2)c2ccccc21 [Quisinostat] | 0.847 | 0.918 | 0.963 | 1.02 | 0.957 | 0.876 | 1.04 | 0.875 | 0.688 | 0.667 | 0.816 | 1.07 | 0.897 | 0.958 | 0.908
22 | COc1ccc(F)c(F)c1C(=O)c1cnc(NC2CCN(S(C)(=O)=O)CC2)nc1N [R-547] | 1.07 | 1.18 | 1.04 | 1.04 | 1.01 | 1.09 | 1.02 | 1 | 0.739 | 0.134 | 1.01 | 0.934 | 1.08 | 1.04 | 1.04
23 | COC1CC2CCC(C)C(O)(O2)C(=O)C(=O)N2CCCCC2C(=O)OC(C(C)CC2CCC(O)C(OC)C2)CC(=O)C(C)C=C(C)C(O)C(OC)C(=O)C(C)CC(C)C=CC=CC=C1C (stereo not given) [Rapamycin] | 1.01 | 0.98 | 0.933 | 0.902 | 0.81 | 0.859 | 0.948 | 0.789 | 0.77 | 0.742 | 0.973 | 1.02 | 1.05 | 0.913 | 0.831
24 | Cn1nccc1Nc1nccc(-c2ccn(C(CO)c3ccc(Cl)c(F)c3)c(=O)c2)n1 (stereo not given) [Ravoxertinib] | 0.989 | 0.841 | 0.884 | 0.894 | 0.886 | 0.977 | 0.997 | 1.04 | 1.07 | 1.1 | 1.1 | 0.921 | 1 | 0.983 | 1.02
25 | CN(C)C(=O)c1cc2cnc(Nc3ccc(N4CCNCC4)cn3)nc2n1C1CCCC1 [Ribociclib] | 1 | 0.964 | 1.09 | 1.06 | 1.14 | 0.887 | 0.874 | 0.862 | 0.879 | 0.856 | 0.914 | 0.883 | 1.01 | 0.984 | 1.06
26 | O=C(CCCCCCNC(=O)c1cnc(N(c2ccccc2)c2ccccc2)nc1)NO [Ricolinostat] | 1.01 | 1 | 1.03 | 0.976 | 0.984 | 0.874 | 0.881 | 0.933 | 0.841 | 0.655 | 1.01 | 0.933 | 1.07 | 0.969 | 0.881
27 | COc1cc(OC)c(C=CS(=O)(=O)Cc2ccc(OC)c(NCC(=O)O)c2)c(OC)c1 [Rigosertib] | 1.02 | 1.01 | 1.01 | 0.871 | 0.797 | 1.01 | 1.01 | 0.87 | 0.426 | 0.468 | 0.92 | 0.988 | 0.948 | 0.711 | 0.621
28 | CN1CCC(c2c(O)cc(O)c3c(=O)cc(-c4ccccc4Cl)oc23)C1CO (stereo not given) [Riviciclib] | 1.07 | 1.04 | 0.985 | 0.866 | 1.03 | 1.04 | 0.872 | 0.754 | 0.6 | 0.242 | 0.627 | 0.605 | 1 | 0.783 | 1.04
29 | CC=C1NC(=O)C2CSSCCC=CC(CC(=O)NC(C(C)C)C(=O)N2)OC(=O)C(C(C)C)NC1=O (stereo not given) [Romidepsin] | 0.987 | 1.07 | 1.02 | 1 | 1.03 | 1.1 | 0.839 | 0.703 | 0.539 | 0.042 | 0.904 | 0.961 | 0.914 | 1.03 | 1.06
